Results: patent US20240174690A1, “ANNULATED 2-AMINO-3-CYANO THIOPHENES AND DERIVATIVES FOR THE TREATMENT OF CANCER” (BOEHRINGER INGELHEIM INTERNATIONAL GMBH, priority 2021, published 2024)
pIC50: −log10 of the molar value.

Assays:
[1] = biological target: KRAS (G12D)::SOS1 (Homo sapiens (Human), UniProt P01116, G12D); experiment: KRAS::SOS1 AlphaScreen binding assay, KRAS G12D
Outline: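 AlphaScreen measurement of compound disruption of biotinylated, GDP-loaded KRAS 1-169 (10 nM; G12C 7.5 nM) binding to GST-SOS1 564-1049 (5 nM with G12D/G12C, 10 nM otherwise), with 10 μM GDP in PBS/0.1% BSA/0.05% Tween 20. Timing was 30 min compound preincubation, then 60 min with beads at room temperature; top concentration 100 μM, 4-parameter IC50.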

[2] = tested on: SAS cells; experiment: SAS CTG proliferation assay (120 h) (HNSCC, wt amplified); assay type: cell-based
Outline: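 Viability measured by CellTiter-Glo luminescence, normalized to DMSO wells, after 120 h compound treatment of SAS cells. Cells grown in DMEM:F12 plus 10% FCS at 300 cells per well, dosed the day after seeding. Four-parameter fit gives IC50.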

[3] = Caco-2 assay (permeability PappAB, PappBA, efflux ratio); assay type: in vitro ADME; conditions: human, Caco-2, 10 μM test compound, pH 7.4; for Papp A→B at 90 min, 10 μM: apical to basolateral; for efflux ratio at 90 min, 10 μM: efflux ratio PappBA/PappAB, read-out: Caco ER
Outline: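 Bidirectional permeability (apical-to-basolateral and reverse) through polarized Caco-2 monolayers, BSA 0.25% on each side, 37 °C. Donor and receiver sampled at 0-90 min after 25-30 min preincubation, analysed by HPLC/MS/MS. Apparent permeabilities derived from transfer rate normalised to area and t=0 donor concentration; ER taken as PappBA over PappAB.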

Chain of KRAS (G12D)::SOS1 (P01116 other isoform, or with tags, fused parts or gaps G12D): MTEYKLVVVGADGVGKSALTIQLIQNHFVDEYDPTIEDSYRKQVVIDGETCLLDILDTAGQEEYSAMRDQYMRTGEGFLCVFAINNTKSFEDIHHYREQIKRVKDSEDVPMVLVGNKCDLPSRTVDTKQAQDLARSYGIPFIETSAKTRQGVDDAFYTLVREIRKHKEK

SMILES | pIC50 [1] | Papp A→B at 90 min, 10 μM [3] | efflux ratio at 90 min, 10 μM [3] | pIC50 [2]
C[C@H](Oc1cc(-c2ccn(C)n2)nc(-c2noc3c2CCC[C@@]32CCCc3sc(N)c(C#N)c32)n1)[C@@H]1C[C@H](F)CN1C [II-144] | 7.85 | 15 ×10⁻⁶ cm/s | 0.7 | 6.52
C[C@H](Oc1cc(N2CCN(C)C3(COC3)C2)nc(-c2noc3c2CCC[C@@]32CCCc3sc(N)c(C#N)c32)n1)[C@@H]1C[C@@H](F)CN1C [II-148] | 9.00 | 12 ×10⁻⁶ cm/s | 3.3 | 6.38
C[C@H](Oc1cc(N2CCN(C)C3(CC3)C2)nc(-c2noc3c2CCC[C@@]32CCCc3sc(N)c(C#N)c32)n1)[C@@H]1C[C@@H](F)CN1C [II-149] | 9.00 |  | 1.2 | 6.07
C[C@H](Oc1cc(N2CCNC3(COC3)C2)nc(-c2noc3c2CCC[C@@]32CCCc3sc(N)c(C#N)c32)n1)[C@@H]1C[C@@H](F)CN1C [II-150] | 9.00 | 2.5 ×10⁻⁶ cm/s | 11.6 | 7.04
C[C@H](Oc1cc(N2CCN(C)C3(CCOC3)C2)nc(-c2noc3c2CCC[C@@]32CCCc3sc(N)c(C#N)c32)n1)[C@@H]1C[C@@H](F)CN1C (stereo partly shown) [II-151] | 8.70 |  | 2 | 6.79
CO[C@@H]1C[C@@H]([C@H](C)Oc2cc(N3CCN(C)C4(CC4)C3)nc(-c3noc4c3CCC[C@@]43CCCc4sc(N)c(C#N)c43)n2)N(C)C1 [II-152] | 8.52 | 3.1 ×10⁻⁶ cm/s | 16.8 | 5.37
CO[C@@H]1C[C@@H]([C@H](C)Oc2cc(N3CCN(C)C4(COC4)C3)nc(-c3noc4c3CCC[C@@]43CCCc4sc(N)c(C#N)c43)n2)N(C)C1 [II-153] | 8.70 | 1.2 ×10⁻⁶ cm/s | 30 | 6.70
C[C@H](Oc1nc(-c2noc3c2CCC[C@@]32CCCc3sc(N)c(C#N)c32)nc(N2CCNC3(CC3)C2)c1F)[C@@H]1C[C@@H](F)CN1C [II-155] | 9.00 |  | 2.9 | 6.33
C[C@H](Oc1nc(-c2noc3c2CCC[C@@]32CCCc3sc(N)c(C#N)c32)nc(N2CCNC3(CC3)C2)c1Cl)[C@@H]1C[C@@H](F)CN1C [II-156] | 9.00 |  | 1.8 | 6.36
C[C@H](Oc1nc(-c2noc3c2CCC[C@@]32CCCc3sc(N)c(C#N)c32)nc(N2C[C@H](C)NC3(CC3)C2)c1F)[C@@H]1C[C@@H](F)CN1C [II-157] | 9.00 |  | 0.7 | 5.92
C[C@@H]1CN(c2nc(-c3noc4c3CCC[C@@]43CCCc4sc(N)c(C#N)c43)nc(O[C@@H](C)[C@@H]3C[C@@H](F)CN3C)c2F)CC2(CC2)N1 [II-158] | 8.70 |  | 0.4 | 6.23
C[C@@H]1CN(c2cc(O[C@@H](C)[C@@H]3CCCN3C)nc(-c3noc4c3CCC[C@@]43CCCc4sc(N)c(C#N)c43)n2)CCN1 [II-161] | 8.70 | 0.4 ×10⁻⁶ cm/s | 47.6 | 5.80
C[C@H](Oc1cc(N2CCN[C@@H](C)C2)nc(-c2noc3c2CCC[C@@]32CCCc3sc(N)c(C#N)c32)n1)[C@@H]1CCCN1C [II-162] | 9.00 | 0.3 ×10⁻⁶ cm/s | 57.6 | 5.67
C[C@H](Oc1cc(C2=CCNCC2)nc(-c2noc3c2CCC[C@@]32CCCc3sc(N)c(C#N)c32)n1)[C@@H]1CCCN1C [II-164] | 9.00 | 0.1 ×10⁻⁶ cm/s | 138 | 5.82
C[C@H](Oc1cc(N2CCNC3(CC3)C2)nc(-c2noc3c2CCC[C@@]32CCCc3sc(N)c(C#N)c32)n1)[C@@H]1C[C@@H](F)CN1C [II-165] | 9.00 |  | 2.5 | 6.36

Further lines, with some results ahead:

pIC50 [1] | Papp A→B at 90 min, 10 μM [3] | efflux ratio at 90 min, 10 μM [3] | SMILES | pIC50 [2]
8.70 | 0.3 ×10⁻⁶ cm/s | 82.1 | C[C@H](Oc1cc(N2C[C@@H]3[C@@H](N)[C@@H]3C2)nc(-c2noc3c2CCC[C@@]32CCCc3sc(N)c(C#N)c32)n1)[C@@H]1CCCN1C [II-167] | 5.86
9.00 | 1 ×10⁻⁶ cm/s | 39.5 | C[C@H](Oc1cc(-n2cc3c(n2)CNC3)nc(-c2noc3c2CCC[C@@]32CCCc3sc(N)c(C#N)c32)n1)[C@@H]1CCCN1C [II-168] | 6.36
8.05 |  | 9.6 | CC(C)N1CCCN(c2cc(-n3ccnc3)nc(-c3noc4c3CCC[C@@]43CCCc4sc(N)c(C#N)c43)n2)[C@@H](C)C1 [II-169] | 5.36
8.05 | 3.3 ×10⁻⁶ cm/s | 7 | CC(C)N1CCCN(c2cc(-c3ccn(C)n3)nc(-c3noc4c3CCC[C@@]43CCCc4sc(N)c(C#N)c43)n2)[C@@H](C)C1 [II-170] | 5.98
9.00 | 3 ×10⁻⁶ cm/s | 8.2 | C[C@H](Oc1cc(N2CCN(C)C3(CC3)C2)nc(-c2noc3c2CCC[C@@]32CCCc3sc(N)c(C#N)c32)n1)[C@@H]1CCCN1C [II-171] | 5.96
9.00 | 8.7 ×10⁻⁶ cm/s | 19.9 | C[C@H](Oc1cc(N2C[C@H](C)N(C)[C@@H](C)C2)nc(-c2noc3c2CCC[C@@]32CCCc3sc(N)c(C#N)c32)n1)[C@@H]1CCCN1C [II-173] | 6.12
9.00 |  | 5.8 | C[C@H](Oc1cc(-n2cc3c(n2)CN(C)C3)nc(-c2noc3c2CCC[C@@]32CCCc3sc(N)c(C#N)c32)n1)[C@@H]1CCCN1C [II-174] | 6.61
9.00 | 7.1 ×10⁻⁶ cm/s | 5.5 | CC(C)NC(=O)Cc1ccn(-c2cc(O[C@@H](C)[C@@H]3CCCN3C)nc(-c3noc4c3CCC[C@@]43CCCc4sc(N)c(C#N)c43)n2)n1 [II-182] | 7.49
9.00 |  | 2.3 | CO[C@H]1CCN(C)[C@@H]1[C@H](C)Oc1cc(N2CCNC3(CC3)C2)nc(-c2noc3c2CCC[C@@]32CCCc3sc(N)c(C#N)c32)n1 [II-184] | 6.05
9.00 | 21 ×10⁻⁶ cm/s | 0.8 | CO[C@H]1CCN(C)[C@@H]1[C@H](C)Oc1cc(N2CCN(C)C3(CC3)C2)nc(-c2noc3c2CCC[C@@]32CCCc3sc(N)c(C#N)c32)n1 [II-186] | 6.27
9.00 | 5.4 ×10⁻⁶ cm/s | 4.6 | CO[C@@H]1C[C@@H]([C@H](C)Oc2cc(N3CCNC4(CC4)C3)nc(-c3noc4c3CCC[C@@]43CCCc4sc(N)c(C#N)c43)n2)N(C)C1 [II-187] | 5.94
8.70 | 7.9 ×10⁻⁶ cm/s | 5.8 | C[C@H](Oc1cc(-n2ccc(C3(O)COC3)n2)nc(-c2noc3c2CCC[C@@]32CCCc3sc(N)c(C#N)c32)n1)[C@@H]1CCCN1C [II-189] | 7.29
9.00 |  | 2.5 | C[C@H](NC(=O)c1ccn(-c2cc(O[C@@H](C)[C@@H]3CCCN3C)nc(-c3noc4c3CCC[C@@]43CCCc4sc(N)c(C#N)c43)n2)n1)c1ccccn1 [II-191] | 8.00
9.00 | 10 ×10⁻⁶ cm/s | 2.5 | C[C@H](Oc1cc(-n2ccc(C(=O)N[C@@H]3CCOC3)n2)nc(-c2noc3c2CCC[C@@]32CCCc3sc(N)c(C#N)c32)n1)[C@@H]1CCCN1C [II-192] | 7.60
9.00 | 11 ×10⁻⁶ cm/s | 2.6 | C[C@H](Oc1cc(-n2ccc(C(=O)N(C)C3COC3)n2)nc(-c2noc3c2CCC[C@@]32CCCc3sc(N)c(C#N)c32)n1)[C@@H]1CCCN1C [II-194] | 7.43
9.00 | 6.2 ×10⁻⁶ cm/s | 4.5 | COCCNC(=O)c1ccn(-c2cc(O[C@@H](C)[C@@H]3CCCN3C)nc(-c3noc4c3CCC[C@@]43CCCc4sc(N)c(C#N)c43)n2)n1 [II-195] | 7.43
8.70 | 18 ×10⁻⁶ cm/s | 1.8 | CO[C@H]1CCN(C)[C@@H]1[C@H](C)Oc1cc(-n2ccc(C(N)=O)n2)nc(-c2noc3c2CCC[C@@]32CCCc3sc(N)c(C#N)c32)n1 [II-201] | 7.70
9.00 | 4.4 ×10⁻⁶ cm/s | 3.6 | C[C@H](Oc1cc(-n2cc3ccn([C@H]4CCOC4)c(=O)c3n2)nc(-c2noc3c2CCC[C@@]32CCCc3sc(N)c(C#N)c32)n1)[C@@H]1CCCN1C [II-202] | 7.68
9.00 |  | 16.8 | C[C@H](Oc1cc(-n2cc3ccn(C4CCOCC4)c(=O)c3n2)nc(-c2noc3c2CCC[C@@]32CCCc3sc(N)c(C#N)c32)n1)[C@@H]1CCCN1C [II-206] | 7.60
9.00 |  | 2.6 | C[C@H](Oc1cc(-n2ccc(-c3cn(C4CCOCC4)nn3)n2)nc(-c2noc3c2CCC[C@@]32CCCc3sc(N)c(C#N)c32)n1)[C@@H]1CCCN1C [II-210] | 7.85
